Source: US4897402A, “5-oxa, 5-thia, 5-aza HmG-CoA reductase inhibitors” (Merck & Co., Inc., priority 1988, dated 1990)

The compounds below were run against T1, HMG-CoA reductase (Rattus norvegicus, UniProt P51639) (assay: intrinsic HMG-CoA reductase inhibition, in vitro protocol of J. Med. Chem., 28, p. 347-358 (1985)). Details: IC50 of test compound compared with that of compactin (mevastatin) determined simultaneously; compactin assigned a value of 100.
T1 sequence (P51639 1-887): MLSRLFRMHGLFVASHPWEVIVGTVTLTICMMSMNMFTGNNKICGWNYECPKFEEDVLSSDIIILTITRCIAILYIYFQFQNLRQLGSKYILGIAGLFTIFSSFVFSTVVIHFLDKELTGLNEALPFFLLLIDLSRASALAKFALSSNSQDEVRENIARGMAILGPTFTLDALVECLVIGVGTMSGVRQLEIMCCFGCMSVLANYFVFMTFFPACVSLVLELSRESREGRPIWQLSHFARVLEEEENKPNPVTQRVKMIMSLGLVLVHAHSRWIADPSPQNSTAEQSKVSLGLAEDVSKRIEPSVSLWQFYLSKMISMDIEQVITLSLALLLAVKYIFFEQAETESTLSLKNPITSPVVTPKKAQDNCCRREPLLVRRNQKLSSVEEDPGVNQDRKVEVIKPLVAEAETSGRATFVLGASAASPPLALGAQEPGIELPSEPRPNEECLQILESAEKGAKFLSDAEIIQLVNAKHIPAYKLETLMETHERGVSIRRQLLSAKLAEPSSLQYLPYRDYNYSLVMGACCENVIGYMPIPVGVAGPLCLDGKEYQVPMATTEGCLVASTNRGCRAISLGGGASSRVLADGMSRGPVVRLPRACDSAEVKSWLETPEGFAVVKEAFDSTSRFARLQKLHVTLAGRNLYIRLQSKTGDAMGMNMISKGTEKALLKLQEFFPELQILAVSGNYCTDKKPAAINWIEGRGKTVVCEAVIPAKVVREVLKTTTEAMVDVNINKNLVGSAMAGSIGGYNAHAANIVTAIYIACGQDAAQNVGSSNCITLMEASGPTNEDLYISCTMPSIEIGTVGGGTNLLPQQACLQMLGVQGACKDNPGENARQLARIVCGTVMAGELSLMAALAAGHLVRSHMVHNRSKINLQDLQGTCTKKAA
Format: biochemical
Procedure: The intrinsic HMG--CoA reductase inhibition activity of the claimed compounds is measured in the in vitro protocol published in J. Med. Chem., 28, p. 347-358 (1985).
For estimation of relative inhibitory potencies, compactin (i.e., mevastatin) was assigned a value of 100 and the IC50 value of the test compound was compared with that of compactin determined simultaneously in the published in vitro protocol.
Representative of the intrinsic HMG-CoA reductase inhibitory activities of the claimed compounds are the following potencies.

| Relative Potency | Structure (SMILES) |
| --- | --- |
| 96 | CCC(C)(C)C(=O)O[C@H]1CC(C)(C)O[C@@H]2CC[C@H](C)[C@H](CC[C@@H]3C[C@@H](O)CC(=O)O3)[C@@H]12 [Compound 9, 6(R) [2-[8(S)-(2,2-dimethylbutyryloxy)-2(S)-methyl-5-oxa-6,6-dimethyl-1,2,3,4,4a(R),7,8,8a(R)-octahydronaphthyl-1(S)]ethyl]-4(R)-hydroxy-3,4,5,6-tetrahydro-2H-pyran-2-one] |
| 258 | CCC(C)(C)C(=O)O[C@H]1C[C@@](C)(CSc2ccccc2)O[C@@H]2CC[C@H](C)[C@H](CC[C@@H]3C[C@@H](O)CC(=O)O3)[C@@H]12 [Compound 10, 6(R)-[2-[8(S)-(2,2-dimethylbutyryloxy)-2(S)-methyl-5-oxa-6(S)-(phenylthiomethyl, methyl)-1,2,3,4,4a(R),7,8,8a(R)-octahydronaphthyl-1(S)]ethyl]4(R)-hydroxy 3,4,5,6-tetrahydro-2H-pyran-2-one] |
| 280 | CCC(C)(C)C(=O)O[C@H]1C[C@](C)(CSc2ccccc2)O[C@@H]2CC[C@H](C)[C@H](CC[C@@H]3C[C@@H](O)CC(=O)O3)[C@@H]12 [Compound 11, 6(R)-[2-[8(S)-(2,2-dimethylbutyryloxy)-2(S)-methyl-5-oxa-6(R)-(phenylthiomethyl, methyl)-1,2,3,4,4a(R),7,-8,8a(R)-octahydronaphthyl-1(S)]ethyl]-4-(R)-hydroxy 3,4,5,6-tetrahydro-2H-pyran-2-one] |
